Patent US20260337156A1, “SOLUBILIZING COMPOUNDS” (Vivesto AB, priority 2022, published 2026)
“Also recorded” adds a separate entry of the source.

Assays:
[1] = particle size and polydispersity index of drug micelles over time (ZetaSizer); format: physicochemical; conditions: for change of particle size and polydispersity index over time: 0-24 h
Method: Micellar size was measured using a ZetaSizer from Malvern Panalytical.
A stock solution of docetaxel in methanol was mixed with a stock solution of compound 1 in a round bottom flask. The mixture was evaporated to dryness in a rotary evaporator. Final drying was performed in a desiccator to remove residual solvent. Hydration of the dried film was performed by adding water for injection (1.0 mL) to a concentration of 1 mg/mL of docetaxel. The resulting solution was filtered through a 0.22 μm sterile filter and further diluted with 0.9% sodium chloride solution to 0.5 mg/mL of docetaxel. […]
A stock solution of cyclosporin in methanol was mixed with a stock solution of compound 1 in a round bottom flask. The mixture was evaporated to dryness in a rotary evaporator. Final drying was performed in a desiccator to remove residual solvent. Hydration of the dried film was performed by adding water for injection (1.0 mL) to a concentration of 1 mg/mL of cyclosporin. The resulting solution was filtered through a 0.22 μm sterile filter and further diluted with 0.9% sodium chloride solution to 0.5 mg/mL of cyclosporin. The final weight ratio of cyclosporin to micelle forming agent was 1:3.
A stock solution of docetaxel in methanol was mixed with a stock solution of compound 3 in a round bottom flask. The mixture was evaporated to dryness in a rotary evaporator. Final drying was performed in a desiccator to remove residual solvent. Hydration of the dried film was performed by adding water for injection (1.0 mL) to a concentration of 1 mg/mL of docetaxel. The resulting solution was filtered through a 0.22 μm sterile filter and further diluted with 0.9% sodium chloride solution to 0.5 mg/mL of Docetaxel. The final weight ratio of docetaxel to micelle forming agent was 1:3.
A stock solution of cyclosporin in methanol was mixed with a stock solution of compound 3 in a round bottom flask. The mixture was evaporated to dryness in a rotary evaporator. Final drying was performed in a desiccator to remove residual solvent. Hydration of the dried film was performed by adding water for injection (1.0 mL) to a concentration of 1 mg/mL of cyclosporin. The resulting solution was filtered through a 0.22 μm sterile filter and further diluted with 0.9% sodium chloride solution to 0.5 mg/mL of cyclosporin. The final weight ratio of cyclosporin to micelle forming agent was 1:3.
A stock solution of docetaxel in methanol was mixed with a stock solution of compound 4 in a round bottom flask. The mixture was evaporated to dryness in a rotary evaporator. Final drying was performed in a desiccator to remove residual solvent. Hydration of the dried film was performed by adding water for injection (1.0 mL) to a concentration of 1 mg/mL of docetaxel. The resulting solution was filtered through a 0.22 μm sterile filter and further diluted with 0.9% sodium chloride solution to 0.5 mg/mL of docetaxel. […]
A stock solution of docetaxel in methanol was mixed with a stock solution of compound 5 in a round bottom flask. The mixture was evaporated to dryness in a rotary evaporator. Final drying was performed in a desiccator to remove residual solvent. Hydration of the dried film was performed by adding water for injection (1.0 mL) to a concentration of 1 mg/mL of docetaxel. The resulting solution was filtered through a 0.22 μm sterile filter and further diluted with 0.9% sodium chloride solution to 0.5 mg/mL of docetaxel. The final weight ratio of docetaxel to micelle forming agent was 1:3.
A stock solution of cabazitaxel in methanol was mixed with a stock solution of compound 5 in a round bottom flask. The mixture was evaporated to dryness in a rotary evaporator. Final drying was performed in a desiccator to remove residual solvent. Hydration of the dried film was performed by adding water for injection (1.0 mL) to a concentration of 1 mg/mL of cabazitaxel. […]

[2] = appearance of the hydrated drug formulation; format: physicochemical
Method: 3.8 mg of compound 1 was dispensed into a 25 mL round bottom flask and dissolved in methanol (2 mL). 240 μL of a stock solution of docetaxel in methanol (5 mg/mL) was added.
The solution was evaporated to dryness in a rotary evaporator. Final drying was performed in a desiccator to remove residual solvent. Hydration of the dried film was performed by adding water for injection (1.2 mL). […] Drug loading capacity is defined as the ratio of amount API:(API+excipient).
11 mg of example 1 was dispensed into a 25 mL round bottom flask and dissolved in methanol (2 mL). 740 μL of a stock solution of docetaxel in methanol (4.96 mg/mL) was added. The solution was evaporated to dryness in a rotary evaporator. Final drying was performed in a desiccator to remove residual solvent.
4.5 mg of compound 1 was dispensed into a 25 mL round bottom flask and dissolved in methanol (2 mL). 1500 μL of a stock solution of cabazitaxel in methanol (1.00 mg/mL) was added. The solution was evaporated to dryness in a rotary evaporator. Final drying was performed in a desiccator to remove residual solvent.
4.5 mg of compound 1 was dispensed into a 25 mL round bottom flask and dissolved in methanol (2 mL). 1500 μL of a stock solution of cyclosporin in methanol (1.00 mg/mL) was added. The solution was evaporated to dryness in a rotary evaporator. Final drying was performed in a desiccator to remove residual solvent. […]
4.5 mg of compound 4 was dispensed into a round bottom flask and dissolved in methanol (3 mL). […] of a stock solution of docetaxel in methanol (4.96 mg/mL) was added. The solution was evaporated to dryness in a rotary evaporator. Final drying was performed in a desiccator (40 min) to remove residual solvent. Rehydration of the dried film was performed by adding 0.9% sodium chloride solution (1.5 mL).

[3] = cyclosporin:compound 1:3, cyclosporin 0.5 mg/mL
[4] = cyclosporin:compound 1:3, cyclosporin 0.5 mg/mL, time 0 h
[5] = cyclosporin:compound 1:3, cyclosporin 0.5 mg/mL, time 1 h
[6] = cyclosporin:compound 1:3, cyclosporin 0.5 mg/mL, time 2 h
[7] = cyclosporin:compound 1:3, cyclosporin 0.5 mg/mL, time 4 h
[8] = cyclosporin:compound 1:3, cyclosporin 0.5 mg/mL, time 6 h
[9] = cyclosporin:compound 1:3, cyclosporin 0.5 mg/mL, time 24 h
[10] = docetaxel:compound 1:5, docetaxel 0.5 mg/mL, time 0 h
[11] = docetaxel:compound 1:5, docetaxel 0.5 mg/mL, time 1 h
[12] = docetaxel:compound 1:5, docetaxel 0.5 mg/mL, time 2 h
[13] = docetaxel:compound 1:5, docetaxel 0.5 mg/mL, time 4 h
[14] = docetaxel:compound 1:5, docetaxel 0.5 mg/mL, time 6 h
[15] = docetaxel:compound 1:5, docetaxel 0.5 mg/mL, time 24 h
[16] = docetaxel:compound 1:3, docetaxel 0.5 mg/mL, time 0 h
[17] = docetaxel:compound 1:3, docetaxel 0.5 mg/mL, time 1 h
[18] = docetaxel:compound 1:3, docetaxel 0.5 mg/mL, time 2 h
[19] = docetaxel:compound 1:3, docetaxel 0.5 mg/mL, time 4 h
[20] = docetaxel:compound 1:3, docetaxel 0.5 mg/mL, time 6 h
[21] = docetaxel:compound 1:3, docetaxel 0.5 mg/mL, time 24 h

SMILES	change of particle size and polydispersity index over time [1, 3]	Particle size [1, 4] [nm]	Polydispersity index [1, 4]	Particle size [1, 5] [nm]	Polydispersity index [1, 5]	Particle size [1, 6] [nm]	Polydispersity index [1, 6]	Particle size [1, 7] [nm]	Polydispersity index [1, 7]	Particle size [1, 8] [nm]	Polydispersity index [1, 8]	Particle size [1, 9] [nm]	Polydispersity index [1, 9]	appearance of formulation ([2]; formulation with docetaxel)	also measured
COc1cc(C)c(/C=C/C(C)=C/C=C/C(C)=C/C(=O)N(CCS(=O)(=O)[O-])C2CCCCC2)c(C)c1C.[Na+] [Compound 1]	Small increases in the particle size and variations of polydispersity index over time were noted; also recorded: The changes were within acceptable range	30.71	0.10	44.70	0.22	41.29	0.10	44.53	0.10	49.61	0.19	51.37	0.14	yellow transparent solution	change of particle size and polydispersity index over time ([1]; docetaxel:compound 1:5, docetaxel 0.5 mg/mL): Small increases in the particle size and polydispersity index over time were noted; also recorded: The changes were within acceptable range; Particle size [1, 10]: 30.77 nm; Polydispersity index [1, 10]: 0.10; Particle size [1, 11]: 36.60 nm; Polydispersity index [1, 11]: 0.16; Particle size [1, 12]: 39.44 nm; Polydispersity index [1, 12]: 0.16; Particle size [1, 13]: 41.38 nm; Polydispersity index [1, 13]: 0.18; Particle size [1, 14]: 41.19 nm; Polydispersity index [1, 14]: 0.20; Particle size [1, 15]: 43.98 nm; Polydispersity index [1, 15]: 0.21; appearance of formulation ([2]; formulation with cabazitaxel, 1 mg/mL in 0.9% NaCl): yellow transparent solution; appearance of formulation ([2]; formulation with cyclosporin, 1 mg/mL in 0.9% NaCl): yellow transparent solution
COc1cc(C)c(/C=C/C(C)=C/C=C/C(C)=C/C(=O)N(C)CCS(=O)(=O)[O-])c(C)c1C.[Na+] [Compound 3]	Small variations in the particle size and polydispersity index over time were noted; also recorded: The changes were within acceptable range	8.46	0.31	6.77	0.21	6.60	0.19	6.58	0.18	6.68	0.21	7.39	0.32	transparent yellow solution	change of particle size and polydispersity index over time ([1]; docetaxel:compound 1:3, docetaxel 0.5 mg/mL): Small variations in the particle size and polydispersity index over time were noted; also recorded: The changes were within acceptable range; Particle size [1, 16]: 6.19 nm; Polydispersity index [1, 16]: 0.11; Particle size [1, 17]: 7.19 nm; Polydispersity index [1, 17]: 0.11; Particle size [1, 18]: 10.06 nm; Polydispersity index [1, 18]: 0.26; Particle size [1, 19]: 10.18 nm; Polydispersity index [1, 19]: 0.27; Particle size [1, 20]: 10.25 nm; Polydispersity index [1, 20]: 0.27; Particle size [1, 21]: 6.20 nm; Polydispersity index [1, 21]: 0.14
